ChEMBL document CHEMBL4308841, “Synthesis, in vitro antiproliferative activity, and kinase inhibitory effects of pyrazole-containing diarylureas and diarylamides” (Eur J Med Chem, 2018)

Legend:
U-251 = assay: Growth inhibition of human U251 cells assessed as cell growth at 0.01 uM incubated for 48 hrs by sulforhodamine B assay relative to control; format: functional; conditions: U-251, 48 h, read-out: Activity
SK-MEL-2 [1] = assay: Growth inhibition of human SK-MEL-2 cells incubated for 48 hrs by sulforhodamine B assay; format: functional, cell-based; conditions: SK-MEL-2, 48 h
CCRF-CEM = assay: Growth inhibition of human CCRF-CEM cells assessed as cell growth at 1 uM incubated for 48 hrs by sulforhodamine B assay relative to control; format: functional; conditions: read-out: Activity
Hs-578T [2] = assay: Growth inhibition of human Hs578T cells assessed as cell growth at 0.01 uM incubated for 48 hrs by sulforhodamine B assay relative to control; format: functional; conditions: read-out: Activity
NCI-H23 = assay: Growth inhibition of human NCI-H23 cells assessed as cell growth at 0.1 uM incubated for 48 hrs by sulforhodamine B assay relative to control; format: functional; conditions: NCI-H23, 48 h, read-out: Activity
HL-60(TB) = assay: Growth inhibition of human HL-60(TB) cells incubated for 48 hrs by sulforhodamine B assay; format: functional, cell-based; conditions: HL-60, 48 h
MOLT-4 = assay: Growth inhibition of human MOLT4 cells incubated for 48 hrs by sulforhodamine B assay; format: functional, cell-based; conditions: MOLT-4, 48 h
SNB-19 = assay: Growth inhibition of human SNB19 cells assessed as cell growth at 100 uM incubated for 48 hrs by sulforhodamine B assay relative to control; format: functional; conditions: SNB-19, 48 h, read-out: Activity
SNB-75 = assay: Growth inhibition of human SNB75 cells assessed as cell growth at 0.01 uM incubated for 48 hrs by sulforhodamine B assay relative to control; format: functional; conditions: SNB-75, 48 h, read-out: Activity
SK-MEL-2 [3] = assay: Growth inhibition of human SK-MEL-2 cells assessed as cell growth at 10 uM incubated for 48 hrs by sulforhodamine B assay relative to control; format: functional; conditions: SK-MEL-2, 48 h, read-out: Activity
UACC-257 = assay: Growth inhibition of human UACC257 cells assessed as cell growth at 1 uM incubated for 48 hrs by sulforhodamine B assay relative to control; format: functional; conditions: UACC-257, 48 h, read-out: Activity
COLO 205 = assay: Growth inhibition of human COLO205 cells assessed as cell growth at 0.01 uM incubated for 48 hrs by sulforhodamine B assay relative to control; format: functional; conditions: COLO 205, 48 h, read-out: Activity
A549 [4] = assay: Growth inhibition of human A549/ATCC cells assessed as cell growth at 0.1 uM incubated for 48 hrs by sulforhodamine B assay relative to control; format: functional; conditions: A549, 48 h, read-out: Activity
Hs-578T [5] = assay: Growth inhibition of human Hs578T cells assessed as cell growth at 100 uM incubated for 48 hrs by sulforhodamine B assay relative to control; format: functional; conditions: read-out: Activity
NCI-H226 = assay: Growth inhibition of human NCI-H226 cells incubated for 48 hrs by sulforhodamine B assay; format: functional, cell-based; conditions: NCI-H226, 48 h
RXF 393 = assay: Growth inhibition of human RXF393 cells assessed as cell growth at 1 uM incubated for 48 hrs by sulforhodamine B assay relative to control; format: functional; conditions: RXF 393, 48 h, read-out: Activity
HT-29 = assay: Growth inhibition of human HT-29 cells incubated for 48 hrs by sulforhodamine B assay; format: functional, cell-based; conditions: HT-29, 48 h
MDA-MB-435 = assay: Growth inhibition of human MDA-MB-435 cells incubated for 48 hrs by sulforhodamine B assay; format: functional, cell-based; conditions: MDA-MB-435, 48 h
K562 = assay: Growth inhibition of human K562 cells assessed as cell growth at 0.1 uM incubated for 48 hrs by sulforhodamine B assay relative to control; format: functional; conditions: K562, 48 h, read-out: Activity
A498 = assay: Growth inhibition of human A498 cells assessed as cell growth at 1 uM incubated for 48 hrs by sulforhodamine B assay relative to control; format: functional; conditions: A498, 48 h, read-out: Activity
A549 [6] = assay: Growth inhibition of human A549/ATCC cells assessed as cell growth at 100 uM incubated for 48 hrs by sulforhodamine B assay relative to control; format: functional; conditions: A549, 48 h, read-out: Activity
Hs-578T [7] = assay: Growth inhibition of human Hs578T cells incubated for 48 hrs by sulforhodamine B assay; format: functional, cell-based
SF-268 [8] = assay: Growth inhibition of human SF268 cells assessed as cell growth at 1 uM incubated for 48 hrs by sulforhodamine B assay relative to control; format: functional; conditions: SF-268, 48 h, read-out: Activity
HOP-62 = assay: Growth inhibition of human HOP62 cells assessed as cell growth at 1 uM incubated for 48 hrs by sulforhodamine B assay relative to control; format: functional; conditions: HOP-62, 48 h, read-out: Activity
OVCAR-8 = assay: Growth inhibition of human OVCAR8 cells assessed as cell growth at 1 uM incubated for 48 hrs by sulforhodamine B assay relative to control; format: functional; conditions: OVCAR-8, 48 h, read-out: Activity
SF-268 [9] = assay: Growth inhibition of human SF268 cells incubated for 48 hrs by sulforhodamine B assay; format: functional, cell-based; conditions: SF-268, 48 h
SK-OV-3 = assay: Growth inhibition of human SKOV3 cells assessed as cell growth at 1 uM incubated for 48 hrs by sulforhodamine B assay relative to control; format: functional; conditions: SK-OV-3, 48 h, read-out: Activity
RPMI-8226 = assay: Growth inhibition of human RPMI8226 cells assessed as cell growth at 1 uM incubated for 48 hrs by sulforhodamine B assay relative to control; format: functional; conditions: RPMI-8226, 48 h, read-out: Activity
[10] = read-out: LC50 (the source's name)
[11] = read-out: pLC50 (the source's name) (converted)

With `COc1cc(Cl)cc(-c2nn(-c3cccc(NC(=O)Nc4ccc(Cl)c(Cl)c4)c3)cc2-c2ccncc2)c1` the growth at 0.01 µM (U-251) was 95%, the GI50 (SK-MEL-2 [1]; read-out: GI50) was 1.54 µM and the CC50 (SK-MEL-2 [1]; [10]) was 8.54 µM. It also gave a TGI (SK-MEL-2 [1]; read-out: TGI) of 37.4 µM, a GI50 (SK-MEL-2 [1]; read-out: pGI50 (converted)) of 1.62 µM and a CC50 (SK-MEL-2 [1]; [11]) of 8.51 µM. The TGI (SK-MEL-2 [1]; read-out: pTGI (converted)) was 3.72 µM, the growth at 1 µM (CCRF-CEM) was 82% and the growth at 0.01 µM (Hs-578T [2]) was 93%. For the same compound, the growth at 0.1 µM (NCI-H23) was 93%, the GI50 (HL-60(TB); read-out: GI50) was 2.19 µM and the LC50 (HL-60(TB); read-out: LC50) was greater than 100 µM. For the same compound, the TGI (HL-60(TB); read-out: TGI) was 55.8 µM, the GI50 (HL-60(TB); read-out: pGI50 (converted)) was 2.19 µM and the LC50 (HL-60(TB); read-out: pLC50 (converted)) was greater than 100 µM. For the same compound, the TGI (HL-60(TB); read-out: pTGI (converted)) was 5.62 µM, the GI50 (MOLT-4; read-out: GI50) was 1.59 µM and the CC50 (MOLT-4; [10]) was greater than 100 µM. It also gave a TGI (MOLT-4; read-out: TGI) of 61.3 µM, a GI50 (MOLT-4; read-out: pGI50 (converted)) of 1.7 µM and a CC50 (MOLT-4; [11]) greater than 100 µM. The TGI (MOLT-4; read-out: pTGI (converted)) was 6.17 µM, the growth at 100 µM (SNB-19) was 10% and the growth at 0.01 µM (SNB-75) was 88%. The growth at 10 µM (SK-MEL-2 [3]) was -32.1%, the growth at 1 µM (UACC-257) was 80% and the growth at 0.01 µM (COLO 205) was 99%. For the same compound, the growth at 0.1 µM (A549 [4]) was 97%, the growth at 100 µM (Hs-578T [5]) was 28% and the GI50 (NCI-H226; read-out: GI50) was 3.06 µM. For the same compound, the LC50 (NCI-H226; read-out: LC50) was greater than 100 µM, the TGI (NCI-H226; read-out: TGI) was greater than 100 µM and the GI50 (NCI-H226; read-out: pGI50 (converted)) was 3.09 µM. The LC50 (NCI-H226; read-out: pLC50 (converted)) was greater than 100 µM, the TGI (NCI-H226; read-out: pTGI (converted)) was greater than 100 µM and the growth at 1 µM (RXF 393) was 75%. The CC50 (HT-29; [10]) was greater than 100 µM, the GI50 (HT-29; read-out: pGI50 (converted)) was 2.4 µM and the CC50 (HT-29; [11]) was greater than 100 µM. It also gave a TGI (HT-29; read-out: pTGI (converted)) of 9.12 µM, a GI50 (MDA-MB-435; read-out: GI50) of 2.06 µM and an LC50 (MDA-MB-435; read-out: LC50) greater than 100 µM. For the same compound, the TGI (MDA-MB-435; read-out: TGI) was 60 µM, the GI50 (MDA-MB-435; read-out: pGI50 (converted)) was 2.09 µM and the LC50 (MDA-MB-435; read-out: pLC50 (converted)) was greater than 100 µM. The TGI (MDA-MB-435; read-out: pTGI (converted)) was 6.03 µM, the growth at 0.1 µM (K562) was 58% and the growth at 1 µM (A498) was 73%. The growth at 100 µM (A549 [6]) was -10%, the GI50 (Hs-578T [7]; read-out: GI50) was 3.59 µM and the CC50 (Hs-578T [7]; [10]) was greater than 100 µM. The TGI (Hs-578T [7]; read-out: TGI) was greater than 100 µM, the GI50 (Hs-578T [7]; read-out: pGI50 (converted)) was 3.89 µM and the CC50 (Hs-578T [7]; [11]) was greater than 100 µM. It also gave a TGI (Hs-578T [7]; read-out: pTGI (converted)) greater than 100 µM, a growth at 1 µM (SF-268 [8]) of 88% and a growth at 1 µM (HOP-62) of 91%. It also gave a growth at 1 µM (OVCAR-8) of 78%, a GI50 (SF-268 [9]; read-out: GI50) of 3.27 µM and a CC50 (SF-268 [9]; [10]) greater than 100 µM. It also gave a TGI (SF-268 [9]; read-out: TGI) greater than 100 µM, a GI50 (SF-268 [9]; read-out: pGI50 (converted)) of 3.24 µM and a CC50 (SF-268 [9]; [11]) greater than 100 µM. It also gave a TGI (SF-268 [9]; read-out: pTGI (converted)) greater than 100 µM, a growth at 1 µM (SK-OV-3) of 100% and a growth at 1 µM (RPMI-8226) of 39%.
